Test results from patent US10174035B2, “6-morpholinyl-2-pyrazolyl-9H-purine derivatives and their use as PI3K inhibitors” (Daiichi Sankyo Company, Limited, priority 2015, dated 2019).
pIC50: −log10 of the molar value. Converted amounts (≈) assume the structure as drawn. Read-outs that look alike come from different tables or passages of the source.

Experiments:
[1] = biological target: recombinant PI3K δ enzyme (Homo sapiens (Human), UniProt O00329); assay: In vitro enzyme assay (Kinase-Glo luminescent kinase assay), PI3Kδ; type: biochemical
Chain of recombinant PI3K δ enzyme (O00329 whole entry, species assumed, canonical isoform): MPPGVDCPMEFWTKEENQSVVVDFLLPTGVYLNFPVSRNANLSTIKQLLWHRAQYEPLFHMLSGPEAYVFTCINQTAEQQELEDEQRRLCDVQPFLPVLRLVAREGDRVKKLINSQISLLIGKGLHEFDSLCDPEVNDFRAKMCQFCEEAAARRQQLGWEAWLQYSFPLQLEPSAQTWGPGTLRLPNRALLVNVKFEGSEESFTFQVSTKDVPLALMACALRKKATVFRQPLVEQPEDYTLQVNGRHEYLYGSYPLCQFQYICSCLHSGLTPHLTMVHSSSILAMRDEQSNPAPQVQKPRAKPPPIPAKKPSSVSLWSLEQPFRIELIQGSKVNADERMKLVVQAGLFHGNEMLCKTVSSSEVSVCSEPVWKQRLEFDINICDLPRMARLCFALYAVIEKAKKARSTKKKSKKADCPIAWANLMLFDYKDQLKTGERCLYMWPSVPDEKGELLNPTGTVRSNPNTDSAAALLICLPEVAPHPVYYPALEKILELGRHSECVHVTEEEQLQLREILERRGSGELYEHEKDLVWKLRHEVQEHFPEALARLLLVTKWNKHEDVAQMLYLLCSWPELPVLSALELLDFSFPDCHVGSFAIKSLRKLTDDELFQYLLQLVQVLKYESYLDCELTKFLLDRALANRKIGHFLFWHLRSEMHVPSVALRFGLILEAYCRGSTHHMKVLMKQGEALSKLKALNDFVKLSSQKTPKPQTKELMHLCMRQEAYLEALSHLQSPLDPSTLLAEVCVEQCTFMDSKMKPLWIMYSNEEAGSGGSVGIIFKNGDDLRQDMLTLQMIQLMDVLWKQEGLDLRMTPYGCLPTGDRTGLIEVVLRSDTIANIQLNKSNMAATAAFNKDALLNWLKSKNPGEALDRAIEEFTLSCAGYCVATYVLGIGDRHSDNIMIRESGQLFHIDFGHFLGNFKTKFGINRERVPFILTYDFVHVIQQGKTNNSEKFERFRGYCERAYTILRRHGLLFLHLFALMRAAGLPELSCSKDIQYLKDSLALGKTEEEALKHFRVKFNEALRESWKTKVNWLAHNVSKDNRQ
Chain of recombinant PI3K δ enzyme (P27986 whole entry partner, species assumed, canonical isoform): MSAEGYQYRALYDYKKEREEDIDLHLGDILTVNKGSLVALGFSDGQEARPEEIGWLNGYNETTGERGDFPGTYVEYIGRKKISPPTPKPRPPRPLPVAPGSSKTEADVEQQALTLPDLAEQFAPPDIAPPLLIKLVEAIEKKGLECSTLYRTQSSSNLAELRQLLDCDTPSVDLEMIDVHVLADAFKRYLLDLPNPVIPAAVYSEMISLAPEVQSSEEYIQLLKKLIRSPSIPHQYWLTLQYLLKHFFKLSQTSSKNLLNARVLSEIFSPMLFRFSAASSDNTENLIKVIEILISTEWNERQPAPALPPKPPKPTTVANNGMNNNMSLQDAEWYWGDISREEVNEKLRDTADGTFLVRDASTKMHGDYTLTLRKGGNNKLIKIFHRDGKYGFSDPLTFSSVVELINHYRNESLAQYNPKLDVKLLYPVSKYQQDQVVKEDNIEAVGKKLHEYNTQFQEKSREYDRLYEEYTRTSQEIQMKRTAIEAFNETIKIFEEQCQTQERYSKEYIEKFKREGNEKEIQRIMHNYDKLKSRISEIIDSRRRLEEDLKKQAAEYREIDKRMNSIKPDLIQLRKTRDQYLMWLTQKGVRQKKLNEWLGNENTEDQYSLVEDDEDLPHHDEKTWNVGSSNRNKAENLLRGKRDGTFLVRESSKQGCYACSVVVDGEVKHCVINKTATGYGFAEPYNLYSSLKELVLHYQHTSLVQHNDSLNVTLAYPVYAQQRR
How it was run: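 Each recombinant human PI3K isoform at 2.29 μg/mL with 60 μM PIP2 and 10 μM ATP in HEPES pH 7.4, NaCl, CHAPS, MgCl2, DTT, 2 hours at room temperature. Remaining ATP read by Kinase-Glo luminescence relative to no-enzyme blanks.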

[2] = biological target: PI3Kα (Homo sapiens (Human), UniProt P42336); assay: In vitro enzyme assay (Kinase-Glo), selectivity, PI3Kα; type: biochemical; conditions: enzyme 2.29 μg/mL; ATP 10 μM; PIP2 60 μM; 2 hours
Chain of PI3Kα (P42336 whole entry, species assumed): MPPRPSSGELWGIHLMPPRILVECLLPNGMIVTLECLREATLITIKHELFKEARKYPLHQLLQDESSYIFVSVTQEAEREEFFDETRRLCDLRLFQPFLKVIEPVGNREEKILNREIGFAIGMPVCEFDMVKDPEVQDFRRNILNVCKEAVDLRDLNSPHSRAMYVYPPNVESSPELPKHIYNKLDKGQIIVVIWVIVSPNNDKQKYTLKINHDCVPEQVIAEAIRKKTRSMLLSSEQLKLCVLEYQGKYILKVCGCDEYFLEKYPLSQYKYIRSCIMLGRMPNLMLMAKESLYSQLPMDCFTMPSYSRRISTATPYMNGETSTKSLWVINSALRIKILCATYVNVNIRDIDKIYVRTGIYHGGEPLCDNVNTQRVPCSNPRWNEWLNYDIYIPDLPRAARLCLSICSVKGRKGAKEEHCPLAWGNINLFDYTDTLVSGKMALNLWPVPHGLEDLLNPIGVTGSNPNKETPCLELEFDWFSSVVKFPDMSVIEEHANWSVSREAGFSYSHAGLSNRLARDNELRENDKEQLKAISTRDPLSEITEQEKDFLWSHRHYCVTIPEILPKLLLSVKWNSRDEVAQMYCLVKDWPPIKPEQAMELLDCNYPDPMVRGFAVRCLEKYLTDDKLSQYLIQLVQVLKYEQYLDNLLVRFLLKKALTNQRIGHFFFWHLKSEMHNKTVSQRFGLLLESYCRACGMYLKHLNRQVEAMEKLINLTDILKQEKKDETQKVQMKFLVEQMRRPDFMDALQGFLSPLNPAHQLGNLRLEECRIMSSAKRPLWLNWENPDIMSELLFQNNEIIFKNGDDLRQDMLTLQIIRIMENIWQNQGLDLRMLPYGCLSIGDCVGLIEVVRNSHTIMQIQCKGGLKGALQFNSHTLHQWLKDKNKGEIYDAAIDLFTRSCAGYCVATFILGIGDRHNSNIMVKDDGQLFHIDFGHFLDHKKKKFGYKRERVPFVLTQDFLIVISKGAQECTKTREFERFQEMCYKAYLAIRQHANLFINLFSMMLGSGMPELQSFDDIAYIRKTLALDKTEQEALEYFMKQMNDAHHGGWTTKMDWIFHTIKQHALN
Chain of PI3Kα (P27986 whole entry partner, species assumed): as the sequence (P27986 whole entry partner, species assumed, canonical isoform) above
Protocol: (§1) The Kinase-Glo luminescent kinase assay kit (from Promega) was used to measure kinase activity. In this assay, amount of ATP remaining in solution following a kinase reaction is measured. The effect of compounds on PI3Kδ inhibition was carried out by adding 2.29 μg/ml of recombinant PI3K δ enzyme (Proteros, Germany) to reaction mixture containing assay buffer (50 mM HEPES, pH 7.4, 50 mM NaCl, 0.05% CHAPS) supplemented with 10 mM MgCl2, 5 mM DTT, 60 μM Phosphatidyl inositol bisphosphate (PIP2) and 10 μM ATP in the absence or presence of different concentrations of the compounds in a final volume of 15 μl/well, in a 384 well plate. The reaction mixture was incubated for 2 hours at room temperature. At the end of incubation period the equal volume of Kinase-Glo plus (Promega, V3772), was added per well and the luminescence was measured after incubating for 10 minutes at room temperature in dark. Results were calculated by measuring the luminescence units of test samples to blanks containing no enzyme.
(§2) The compounds of the present invention were tested for their selectivity for PI3Kδ over PI3Kα, PI3Kβ and PI3Kγ following the above assay using specific recombinant enzymes (Proteros, Germany) for each kinase. Assay condition of kinase assay (PI3Kα, PI3Kβ, PI3Kγ and PI3Kδ) was as follows. Enzyme: 2.29 μg/mL; ATP: 10 μM; PIP2 substrate: 60 μM and Reaction Time: 2 hours.

[3] = biological target: PI3Kβ (Homo sapiens (Human), UniProt P42338); assay: In vitro enzyme assay (Kinase-Glo), selectivity, PI3Kβ; type: biochemical; conditions: enzyme 2.29 μg/mL; ATP 10 μM; PIP2 60 μM; 2 hours
Chain of PI3Kβ (P42338 whole entry, species assumed): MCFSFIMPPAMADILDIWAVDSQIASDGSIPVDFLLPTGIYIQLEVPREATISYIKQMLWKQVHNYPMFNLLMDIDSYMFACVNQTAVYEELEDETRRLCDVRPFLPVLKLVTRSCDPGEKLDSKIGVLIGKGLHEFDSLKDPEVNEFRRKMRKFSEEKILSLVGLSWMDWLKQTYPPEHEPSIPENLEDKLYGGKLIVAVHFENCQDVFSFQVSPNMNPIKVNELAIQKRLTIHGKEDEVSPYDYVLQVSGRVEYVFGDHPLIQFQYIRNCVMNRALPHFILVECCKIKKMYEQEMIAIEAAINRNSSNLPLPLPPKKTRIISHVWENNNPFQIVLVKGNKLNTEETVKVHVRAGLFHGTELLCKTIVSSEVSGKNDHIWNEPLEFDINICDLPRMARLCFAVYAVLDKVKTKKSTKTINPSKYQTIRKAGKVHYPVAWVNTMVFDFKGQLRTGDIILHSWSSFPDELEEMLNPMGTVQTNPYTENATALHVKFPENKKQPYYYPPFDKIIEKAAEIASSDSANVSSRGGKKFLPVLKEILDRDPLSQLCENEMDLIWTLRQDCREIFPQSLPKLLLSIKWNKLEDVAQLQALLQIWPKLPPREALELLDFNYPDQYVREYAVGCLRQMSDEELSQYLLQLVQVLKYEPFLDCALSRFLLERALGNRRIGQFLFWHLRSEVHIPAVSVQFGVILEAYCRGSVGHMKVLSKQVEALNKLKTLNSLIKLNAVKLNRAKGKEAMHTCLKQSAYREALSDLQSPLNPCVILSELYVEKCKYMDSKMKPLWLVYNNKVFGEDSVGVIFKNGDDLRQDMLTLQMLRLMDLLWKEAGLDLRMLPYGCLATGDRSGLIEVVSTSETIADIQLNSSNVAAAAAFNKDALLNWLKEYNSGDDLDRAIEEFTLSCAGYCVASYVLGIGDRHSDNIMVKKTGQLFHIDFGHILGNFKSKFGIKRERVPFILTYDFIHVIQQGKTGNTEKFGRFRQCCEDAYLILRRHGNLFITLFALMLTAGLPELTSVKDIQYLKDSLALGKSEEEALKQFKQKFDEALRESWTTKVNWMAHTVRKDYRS
Chain of PI3Kβ (P27986 whole entry partner, species assumed): as the sequence (P27986 whole entry partner, species assumed, canonical isoform) above
Protocol: as §1, §2

[4] = biological target: PI3Kγ (Homo sapiens (Human), UniProt P48736); assay: In vitro enzyme assay (Kinase-Glo), selectivity, PI3Kγ; type: biochemical; conditions: enzyme 2.29 μg/mL; ATP 10 μM; PIP2 60 μM; 2 hours
Chain of PI3Kγ (P48736 whole entry, species assumed): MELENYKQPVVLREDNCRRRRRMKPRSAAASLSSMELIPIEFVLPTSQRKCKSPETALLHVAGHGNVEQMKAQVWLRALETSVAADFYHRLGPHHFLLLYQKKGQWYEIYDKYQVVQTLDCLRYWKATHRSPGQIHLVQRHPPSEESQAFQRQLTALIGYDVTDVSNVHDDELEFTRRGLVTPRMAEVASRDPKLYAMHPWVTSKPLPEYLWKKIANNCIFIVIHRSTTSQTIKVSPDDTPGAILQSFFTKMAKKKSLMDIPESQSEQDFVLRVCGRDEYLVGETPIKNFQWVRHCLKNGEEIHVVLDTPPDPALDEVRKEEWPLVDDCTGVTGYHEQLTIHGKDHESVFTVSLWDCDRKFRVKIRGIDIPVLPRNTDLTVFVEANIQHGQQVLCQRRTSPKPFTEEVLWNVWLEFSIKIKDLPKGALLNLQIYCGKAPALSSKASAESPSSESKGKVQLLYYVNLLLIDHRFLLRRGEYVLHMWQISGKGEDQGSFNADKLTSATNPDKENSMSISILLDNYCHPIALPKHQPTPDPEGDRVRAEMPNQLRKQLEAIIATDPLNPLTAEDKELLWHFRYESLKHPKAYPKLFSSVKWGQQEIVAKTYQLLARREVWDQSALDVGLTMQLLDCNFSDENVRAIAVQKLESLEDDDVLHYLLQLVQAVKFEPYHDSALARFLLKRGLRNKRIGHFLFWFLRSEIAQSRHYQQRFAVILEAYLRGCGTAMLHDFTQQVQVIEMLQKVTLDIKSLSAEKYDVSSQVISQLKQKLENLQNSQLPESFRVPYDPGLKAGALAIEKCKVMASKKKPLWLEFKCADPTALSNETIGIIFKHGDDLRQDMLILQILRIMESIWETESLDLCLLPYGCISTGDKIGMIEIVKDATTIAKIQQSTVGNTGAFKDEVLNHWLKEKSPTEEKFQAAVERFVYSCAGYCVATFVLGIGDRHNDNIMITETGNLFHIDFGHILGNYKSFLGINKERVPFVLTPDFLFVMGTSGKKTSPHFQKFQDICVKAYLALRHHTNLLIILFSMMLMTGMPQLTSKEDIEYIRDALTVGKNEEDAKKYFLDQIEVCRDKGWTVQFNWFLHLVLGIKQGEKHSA
Protocol: The Kinase-Glo luminescent kinase assay kit (from Promega) was used to measure kinase activity. In this assay, amount of ATP remaining in solution following a kinase reaction is measured. […] The reaction mixture was incubated for 2 hours at room temperature. At the end of incubation period the equal volume of Kinase-Glo plus (Promega, V3772), was added per well and the luminescence was measured after incubating for 10 minutes at room temperature in dark. Results were calculated by measuring the luminescence units of test samples to blanks containing no enzyme.
The compounds of the present invention were tested for their selectivity for PI3Kδ over PI3Kα, PI3Kβ and PI3Kγ following the above assay using specific recombinant enzymes (Proteros, Germany) for each kinase. Assay condition of kinase assay (PI3Kα, PI3Kβ, PI3Kγ and PI3Kδ) was as follows.

[5] = system: IFN-γ release in mouse splenocytes; assay: Phytohaemagglutinin (PHA)-induced interferon (IFN)-gamma release in mouse splenocytes; design: species or system C57BL/6 mouse; conditions: Splenocyte, PHA (10 μg/ml) for 48 hours, IFN-γ by ELISA, read-out: Cell Based IC50
Protocol: Effect of compounds on mitogen-induced IFN-γ release in mouse splenocytes was used to evaluate their potency in cell-based assay system [Blood (2010) 115: 2203-2213; Current Protocols in Immunology (2004) 3.12.1-3.12.20].
Mouse splenocytes were obtained from the spleen of a C57BL/6 mouse and plated at a density of 0.25 million cells/well in a 96 well tissue culture plate. The effect of the compounds to inhibit IFN-γ release was evaluated by treating the splenocytes with various concentrations of the test compounds followed by stimulation with PHA (10 μg/ml) for 48 hours. The IFN-γ release in the cell culture supernatant was quantified by ELISA as per the manufacturer's protocol (BD Biosciences, #555138).

[6] = system: eosinophil count in bronchoalveolar lavage fluid; assay: Ovalbumin-induced airway eosinophilia model in Brown Norway rats; type: in vivo; conditions: oral; for Percent inhibition of BAL eosinophil count at 3 mg/kg: ovalbumin challenge
Protocol: The protocols were followed in similar fashion as described in Clin. Exp. Immunol., 2001; 126:9-15 and J. Pharmacol. Exp. Ther., 2011; 337:145-54. Male Brown Norway rats were sensitized by intraperitoneal injection of a suspension of 1 mg of ovalbumin and 100 mg of aluminum hydroxide (in sterile 0.9% saline) on day 0 and 7. On day 14, the compounds were administered to the rats by oral gavage. One hour after oral administration, the animals were placed into a perspex chamber and exposed to an aerosol of 5% ovalbumin for ten minutes. Compounds were administered on Day 14 and Day 15 either once or twice daily. Forty-eight hours after ovalbumin challenge, the animals were euthanized and bronchoalveolar lavage fluid was collected. The cell suspensions were processed and absolute eosinophil count was enumerated.

[7] = Solubility in Japanese Pharmacopeia First Fluid (JP1) and Second Fluid (JP2); type: physicochemical; conditions: thermodynamic from solid, room temperature
Protocol: A 10 mmol/L solution of the test compound was prepared in DMSO and dispensed 100 μL of 10 mmol/L DMSO stock solutions into labeled glass tubes in duplicate, one for Japanese Pharmacopeia First Fluid (JP1) and second for Japanese Pharmacopeia Second Fluid (JP2). After evaporation of DMSO from each tube, 500 μL of JP1 and JP2 fluid were added in each tube, respectively. These tubes were sonicated for 1 minute and placed on shaker for 30 minutes with an interval of 30 seconds at every 5 minute. Tubes were placed in dark at room temperature for 1 hour and solution was filtered through membrane filter. The filtrate was diluted 2-fold and 10-fold. The resulting test solutions was analyzed and quantified against the standards using UPLC (standard preparation-10 mmol/L solution in DMSO is serially diluted with 50% aqueous acetonitrile solution to prepare 2 solutions; 100 μmol/L standard solution and 5 μmol/L standard solution).

[8] = enzyme 2.29 μg/mL, ATP 10 μM, PIP2 60 μM, 2 hours
[9] = pH 1.2, simulated gastric fluid, Japanese Pharmacopeia First Fluid (JP1), read-out: Solubility JP1
[10] = pH 6.8, aqueous buffer, Japanese Pharmacopeia Second Fluid (JP2), read-out: Solubility JP2

Compound	pIC50 [1]	pIC50 [1, 8]	pIC50 [2]	pIC50 [3]	pIC50 [4]	pIC50 [5]	Percent inhibition of BAL eosinophil count at 3 mg/kg [6] [%]	solubility at 30 min [7, 9] [µg/mL]	solubility at 30 min [7, 10] [µg/mL]	ED50 ([6]; bid, absolute eosinophil count in BAL fluid)
Cn1cc(-c2nc(N3CCOCC3)c3nc(C(=O)N4CCC5(CC4)COC5)[nH]c3n2)cn1 [compound 3, [2-(1-Methyl-1H-pyrazol-4-yl)-6-(morpholin-4-yl)-9H-purin-8-yl](2-oxa-7-azaspiro[3.5]non-7-yl)methanone]	7.82	7.82	< 6.00	< 5.00	< 6.00	7.26	46			
O=C(c1nc2c(N3CCOCC3)nc(-c3cn[nH]c3)nc2[nH]1)N1CCC(N2CCOCC2)CC1 [compound 42, [4-(Morpholin-4-yl)piperidin-1-yl][6-(morpholin-4-yl)-2-(1H-pyrazol-4-yl)-9H-purin-8-yl]methanone]								> 1510	124 (≈ 265 µM)	
Cn1cc(-c2cc(N3CCOCC3)c3nc(C(=O)N4CCC(N5CCOCC5=O)CC4)[nH]c3n2)cn1 [compound 77, 4-(1-{[5-(1-Methyl-1H-pyrazol-4-yl)-7-(morpholin-4-yl)-3H-imidazo[4,5-b]pyridin-2-yl]carbonyl}piperidin-4-yl)morpholin-3-one]	8.05							1430 (≈ 2890 µM)	251 (≈ 508 µM)	
Cn1cc(-c2cc(N3CCOCC3)c3nc(C(=O)N4CCC5(CC4)COC5)[nH]c3n2)cn1 [compound 78, [5-(1-Methyl-1H-pyrazol-4-yl)-7-(morpholin-4-yl)-3H-imidazo[4,5-b]pyridin-2-yl](2-oxa-7-azaspiro[3.5]non-7-yl)methanone]	7.89	7.89	5.66	< 5.00	6.19	7.55	45			
Cc1nn(C)cc1-c1nc2[nH]c(C(=O)N3CCC(C(C)(C)O)CC3)nc2c(N2CCOCC2)c1F [compound 84, [5-(1,3-Dimethyl-1H-pyrazol-4-yl)-6-fluoro-7-(morpholin-4-yl)-3H-imidazo[4,5-b]pyridin-2-yl][4-(2-hydroxypropan-2-yl)piperidin-1-yl]methanone]	8.30						26			
Cc1nn(C)cc1-c1nc2[nH]c(C(=O)N3CCC(C(N)=O)CC3)nc2c(N2CCOCC2)c1F [compound 85, 1-{[5-(1,3-Dimethyl-1H-pyrazol-4-yl)-6-fluoro-7-(morpholin-4-yl)-3H-imidazo[4,5-b]pyridin-2-yl]carbonyl}piperidine-4-carboxamide]	7.72	7.72	< 6.00	< 5.00	< 6.00	5.90				
Cc1nn(C)cc1-c1nc2[nH]c(C(=O)N3CCC(O)CC3)nc2c(N2CCOCC2)c1F [compound 86, [5-(1,3-Dimethyl-1H-pyrazol-4-yl)-6-fluoro-7-(morpholin-4-yl)-3H-imidazo[4,5-b]pyridin-2-yl](4-hydroxypiperidin-1-yl)methanone]	7.57	7.57	< 6.00	< 5.00	5.07	6.65				
Cc1nn(C)cc1-c1nc2c(nc(C(=O)N3CCC(N4CCOCC4)CC3)n2C)c(N2CCOCC2)c1F [compound 87, [5-(1,3-Dimethyl-1H-pyrazol-4-yl)-6-fluoro-3-methyl-7-(morpholin-4-yl)-3H-imidazo[4,5-b]pyridin-2-yl][4-(morpholin-4-yl)piperidin-1-yl]methanone]	8.52	8.52	< 5.00	< 5.00	< 5.00	7.33				0.8 mg/kg, bid
Cc1nn(C)cc1-c1cc(N2CCOCC2)c2nc(C(=O)N3CCC(N4CCOCC4)CC3)[nH]c2n1 [compound 94, [5-(1,3-Dimethyl-1H-pyrazol-4-yl)-7-(morpholin-4-yl)-3H-imidazo[4,5-b]pyridin-2-yl][4-(morpholin-4-yl)piperidin-1-yl]methanone]	8.40	8.40	6.01	5.00	5.52	7.96		808 (≈ 1630 µM)	754 (≈ 1520 µM)	
Cc1nn(C)cc1-c1nc2[nH]c(C(=O)N3CCC(N(C)C)CC3)nc2c(N2CCOCC2)c1F [compound 97, [4-(Dimethylamino)piperidin-1-yl][5-(1,3-dimethyl-1H-pyrazol-4-yl)-6-fluoro-7-(morpholin-4-yl)-3H-imidazo[4,5-b]pyridin-2-yl]methanone]	8.52	8.52	5.97	< 5.00	6.02	6.74		> 936	> 923	
Cn1cc(-c2nc3[nH]c(C(=O)N4CCC(N5CCOCC5)CC4)nc3c(N3CCOCC3)c2F)cn1 [compound 98, [6-Fluoro-5-(1-methyl-1H-pyrazol-4-yl)-7-(morpholin-4-yl)-3H-imidazo[4,5-b]pyridin-2-yl][4-(morpholin-4-yl)piperidin-1-yl]methanone]	8.22	8.22	< 5.00	< 5.00	< 5.00	7.37				
CN(C)C1CCN(C(=O)c2nc3c(N4CCOCC4)c(F)c(-c4cnn(C)c4)nc3[nH]2)CC1 [compound 99, [4-(Dimethylamino)piperidin-1-yl][6-fluoro-5-(1-methyl-1H-pyrazol-4-yl)-7-(morpholin-4-yl)-3H-imidazo[4,5-b]pyridin-2-yl]methanone]	7.54							816 (≈ 1790 µM)	321 (≈ 703 µM)	
Cn1cc(-c2cc(N3CCOCC3)c3nc(C(=O)N4CCC(N5CCOCC5)CC4)[nH]c3n2)cn1 [compound 102, [5-(1-Methyl-1H-pyrazol-4-yl)-7-(morpholin-4-yl)-3H-imidazo[4,5-b]pyridin-2-yl][4-(morpholin-4-yl)piperidin-1-yl]methanone]	7.72							932 (≈ 1940 µM)	560 (≈ 1170 µM)	
